Measured values reported in patent US6566361B2, “Azapirone pain treatment” (priority 1999, dated 2003).

Assays:
albino rats [1] = experiment: Rat hindpaw withdrawal (thermal escape) test for analgesia (acute pain); assay type: in vivo; details: for Hindpaw thermal escape latency from 30 min to 120 min: ipsapirone 20 mg/kg ip, acetaminophen 300 mg/kg ip, or both coadministered, vs vehicle; for Thermal escape latencies vs vehicle, single administration: tandospirone 5 mg/kg ip alone, acetaminophen 300 mg/kg ip alone
Source text: To assess the thermally evoked paw-withdrawal response, a commercially available device was used. Specifics of device construction and operation have been published previously (Dirig D M, Salami A, Rathbun M L, Ozaki G T, Yaksh T L. Characterization of variables defining hindpaw withdrawal latency evoked by radiant thermal stimuli. J Neurosci Methods. Oct. 3, 1997; 76(2):183-91). This device is comprised of a glass surface on which the rats were placed individually in Plexiglas cubicles (9×22×25 cm). The surface is maintained at 30° C. by a feedback-controlled, under-glass, forced-air heating system. The thermal nociceptive stimulus originates from a projection bulb below the glass that can be manipulated in a two-dimensional axis on ball bearing slides. This apparatus allows the stimulus to be delivered separately to each hind paw with the aid of an angled mirror mounted on the stimulus source. A timer is actuated with the light source, and escape latency is defined as the time between stimulus onset and the display of a brisk paw withdrawal (detected by photodiode motion sensors that stops the timer and terminates the stimulus; cut-off time for a non-response is 20 sec which triggers automatic termination of the stimulus). In the present study, animals are placed in test boxes for 30 min acclimation and then baseline escape latency is assessed separately for each hindpaw (left and right) at −15 min. All drugs are delivered at 0 min by the intraperitoneal (i.p.) route in a volume of 3 ml/kg. […] For acetaminophen (Sigma, A7085) the vehicle was 40% polyethylene glycol 400 (PEG-400), 10% EtOH, 15% Tween 80, and 35% deionized H2O (PETW). Acetaminophen was disolved sequentially in two parts: 1) first into a solution of 80% PEG 400+20% EtOH, and 2) then slowly added to it was an equal volume of 30% Tween 80+70% deionized H2O (sonicated as needed). Other azapirone vehicles were Gepirone (saline), ipsapirone (deionized H2O), and tandospirone (DMA+PETW), DMA=5% dimethylacetamide. Each animal received two injections at time zero. Specifically, animals were tested in one of the following 10 treatment conditions (abbreviations used in figures are shown under ‘Key” below):
Following drug administration, thermal escape latencies are measured at regular intervals (e.g., 15, 30, 60, 90 and 120 min, mean of both paws is used for statistical analysis).

albino rats [2] = experiment: Preclinical model of chronic pain (rat formalin test, phase II flinches); assay type: in vivo; details: single ip delivery: morphine 4 mg/kg, buspirone 3 mg/kg, acetaminophen 300 mg/kg
Procedure: To assess responses to a chronic stimulus (subcutaneous formalin injection), animals are first placed in clear observation boxes for a 30 min acclimation period prior to testing. Animals are subsequently removed and the dorsum of one hindpaw is injected s.c. with 50 microliters of 2.5% formalin. […] The total number of flinches is computer scored during the chronic phase (10-90 min after formalin) using a commercially available device (George Ozaki, Automated Nocicpetion Analyzer, Department of Anesthesiology, University of California, San Diego; La Jolla, Calif.) which automates the manual procedure described previously by Wheeler-Aceto et al. (Pain 40:229-238, 1990). All drugs are delivered at 30 min prior to formalin injection by the intraperitoneal (i.p.) route in a volume of 2 ml/kg. […] For acetaminophen (Sigma, A7085) the vehicle was 40% polyethylene glycol 400 (PEG-400), 10% EtOH, 15% Tween 80, and 35% deionized H2O (PETW). Acetaminophen was disolved sequentially in two parts: 1) first into a solution of 80% PEG 400+20% EtOH, and 2) then slowly added to it was an equal volume of 30% Tween 80+70% deionized H2O (sonicated as needed). Each animal received two injections at time zero. Specifically, animals were tested in one of the following 5 treatment conditions (abbreviations used in figures are shown under ‘Key” below): […]

rats = experiment: Preclinical model of neuropathic pain (Chung spinal nerve L5/L6 ligation, von Frey test); assay type: in vivo, rat; details: buspirone 3 mg/kg ip; acetaminophen 200 mg/kg ip; or both coadministered
Source text: J Neurosci Methods. […] For acetaminophen (Sigma, A7085) the vehicle was 40% polyethylene glycol 400 (PEG-400), 10% EtOH, 15% Tween 80, and 35% deionized H2O (PETW). Acetaminophen was disolved sequentially in two parts: 1) first into a solution of 80% PEG 400+20% EtOH, and 2) then slowly added to it was an equal volume of 30% Tween 80+70% deionized H2O (sonicated as needed). Each animal received two injections at time zero.

[3] = Rat plasma concentrations of buspirone and APAP over time; assay type: in vivo
Source text: It also has agonistic action at presynaptic D2 dopaminergic receptors. Acetaminophen is believed to act by elevating the pain threshold in patients.

mouse = experiment: Mouse hot plate test (Eddy et al.); assay type: in vivo; details: buspirone to acetaminophen weight ratios of 1:3, 1:10, and 1:30
[4] = in vivo; cited from earlier work
[5] = acute high doses; cited from earlier work
[6] = in vivo; cited from earlier work; remark: listed apart in the source

Molecule	Hindpaw thermal escape latency from 30 min to 120 min (albino rats [1])	Thermal escape latencies vs vehicle, single administration (albino rats [1])	Formalin-induced flinches relative to vehicle (albino rats [2])	von Frey thresholds, injured side (neuropathic pain responses) (rats)	also measured
CC(=O)Nc1ccc(O)cc1 [acetaminophen]	a comparably high level of analgesia was not consistently attached throughout this same time period	did not differ from vehicle until 90 min after injection	significantly suppressed	partial reversal toward normal at 30-120 min	Hindpaw thermal escape response, Area Under the Curve (AUC) from thermal escape latencies (sec) over 120 min post injection (albino rats [1]; acetaminophen 300 mg/kg ip, compared to vehicle): elevated significantly above vehicle; Plasma concentrations over time, alone vs in combination [3]: do not differ significantly whether given alone or in combination
8-[4-[4-(2-pyrimidinyl)1-piperazinyl]butyl-8-azaspiro(4,5)-decane-7,9-dione [buspirone]	–	–	significantly suppressed	not significantly different from vehicle	Potentiation of acetaminophen in hot plate test (mouse): demonstrated potentiation of acetaminophen; Type of analgesia produced [4]: non-opioid type of analgesia; Relief of neuropathic pain [5]: did not relieve neuropathic pain; Effect on xylazine-induced antinociception [6]: attenuate xylazine-induced antinociception
O=C1[C@@H]2[C@H]3CC[C@H](C3)[C@@H]2C(=O)N1CCCCN1CCN(c2ncccn2)CC1 [tandospirone]	–	did not differ from vehicle until 90 min after injection	–	–	–
CN1CC[C@]23c4c5ccc(O)c4O[C@H]2[C@@H](O)C=C[C@H]3[C@H]1C5 [morphine]	–	–	significantly suppressed	–	–
O=C1c2ccccc2S(=O)(=O)N1CCCCN1CCN(c2ncccn2)CC1 [ipsapirone]	a comparably high level of analgesia was not consistently attached throughout this same time period	–	–	–	–
